Calls of active or inactive are those of the source. The calls are words filed in the database; no cut-off is given here.
Assays:
[1] = molecular target: T1, Guanine nucleotide-binding protein G(I)/G(S)/G(T) subunit beta-1/gamma-2 (Homo sapiens, UniProt P62873+P59768); test: Inhibition of biotinylated Gbeta1gamma2 (unknown origin) binding to PLCbeta2 at 1 uM incubated for 16 hrs; assay type: protein-complex assay
Target sequence in this assay (P59768 2-71 partner limits assumed): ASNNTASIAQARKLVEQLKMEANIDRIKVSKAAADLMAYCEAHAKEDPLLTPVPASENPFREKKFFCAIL
Target sequence in this assay (P62873 2-340 limits assumed): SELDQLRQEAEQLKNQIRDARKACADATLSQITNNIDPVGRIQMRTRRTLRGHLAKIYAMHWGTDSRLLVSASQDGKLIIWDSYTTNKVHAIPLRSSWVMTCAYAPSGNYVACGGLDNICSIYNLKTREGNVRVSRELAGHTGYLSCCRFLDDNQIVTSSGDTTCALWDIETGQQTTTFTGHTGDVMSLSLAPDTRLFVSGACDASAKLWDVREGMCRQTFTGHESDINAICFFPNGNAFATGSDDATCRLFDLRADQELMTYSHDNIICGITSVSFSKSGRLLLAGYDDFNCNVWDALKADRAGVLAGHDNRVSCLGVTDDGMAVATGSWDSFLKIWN

HL-60 [2] = test: Binding affinity to Gbetagamma in human HL60 cells assessed as inhibition of fMLP-stimulated GRK2 translocation at 10 uM incubated for 5 mins prior to fMLP stimulation by Western blot analysis; assay type: cell-based
[3] = molecular target: T1, Guanine nucleotide-binding protein G(I)/G(S)/G(T) subunit beta-1/gamma-2; test: Inhibition of biotinylated Gbeta1gamma2 (unknown origin) binding to PLCbeta3 at 1 uM incubated for 16 hrs; assay type: protein-complex assay
Target sequence in this assay (P59768 2-71 partner limits assumed): as the sequence (P59768 2-71 partner limits assumed) above
Target sequence in this assay (P62873 2-340 limits assumed): as the sequence (P62873 2-340 limits assumed) above

HL-60 [4] = test: Effect on fMLP-stimulated ERK1/2 phosphorylation in human HL60 cells at 10 uM incubated for 5 mins prior to fMLP stimulation by Western blot analysis; assay type: functional, cell-based
[5] = molecular target: T1, Guanine nucleotide-binding protein G(I)/G(S)/G(T) subunit beta-1/gamma-2; test: Inhibition of biotinylated Gbeta1gamma2 (unknown origin)-mediated PLCbeta3 activation incubated for 16 hrs; assay type: protein-complex assay
Target sequence in this assay (P59768 2-71 limits assumed): as the sequence (P59768 2-71 partner limits assumed) above
Target sequence in this assay (P62873 2-340 limits assumed): as the sequence (P62873 2-340 limits assumed) above

[6] = molecular target: T1, Guanine nucleotide-binding protein G(I)/G(S)/G(T) subunit beta-1/gamma-2; test: Inhibition of biotinylated Gbeta1gamma2 (unknown origin)-mediated PLCbeta2 activation incubated for 16 hrs; assay type: protein-complex assay
Target sequence in this assay (P59768 2-71 limits assumed): as the sequence (P59768 2-71 partner limits assumed) above
Target sequence in this assay (P62873 2-340 limits assumed): as the sequence (P62873 2-340 limits assumed) above

Mus musculus [7] = organism: Mus musculus; test: Inhibition of Gbetagamma-GRK2 interaction in mouse cardiomyocytes assessed as increase in contractility; assay type: cell-based
Mus musculus [8] = organism: Mus musculus; test: Inhibition of Gbetagamma-GRK2 interaction in mouse cardiomyocytes assessed as increase in isoproterenol-induced contractility; assay type: cell-based
HL-60 [9] = test: Antiinflammatory activity in differentiated human HL60 cells assessed as inhibition of fMLP-stimulated cell migration at 10 uM after 1 hr by Boyden chamber method; assay type: functional, cell-based
HL-60 [10] = test: Binding affinity to Gbetagamma in differentiated human HL60 cells assessed as inhibition of fMLP-stimulated Rac1 activation at 10 uM preincubated for 10 mins followed by fMLP challenge for 90 secs by Western blot analysis; assay type: cell-based
HL-60 [11] = test: Binding affinity to Gbetagamma in human HL60 cells assessed as inhibition of fMLP-stimulated GFP-PHAkt translocation to plasma membrane at 10 uM incubated for 5 mins prior to fMLP stimulation by Western blot analysis; assay type: cell-based
HL-60 [12] = test: Binding affinity to Gbetagamma in human HL60 cells assessed as inhibition of fMLP-stimulated Ca2+ release at 10 uM incubated for 5 mins prior to fMLP stimulation by Fura2-AM dye-based assay; assay type: cell-based
[13] = molecular target: T1, Guanine nucleotide-binding protein G(I)/G(S)/G(T) subunit beta-1/gamma-2; test: Inhibition of SIGKAFKILGYPDYD binding to biotinylated Gbeta1gamma2 (unknown origin) at 300 uM incubated for 1 hr by phage ELISA; assay type: protein-complex assay
Target sequence in this assay (P59768 2-71 partner limits assumed): as the sequence (P59768 2-71 partner limits assumed) above
Target sequence in this assay (P62873 2-340 limits assumed): as the sequence (P62873 2-340 limits assumed) above

[14] = molecular target: T1, Guanine nucleotide-binding protein G(I)/G(S)/G(T) subunit beta-1/gamma-2; test: Inhibition of SIGKAFKILGYPDYD binding to biotinylated Gbeta1gamma2 (unknown origin) incubated for 1 hr by phage ELISA; assay type: protein-complex assay
Target sequence in this assay (P59768 2-71 partner limits assumed): as the sequence (P59768 2-71 partner limits assumed) above
Target sequence in this assay (P62873 2-340 limits assumed): as the sequence (P62873 2-340 limits assumed) above

[15] = molecular target: Mu-type opioid receptor (Homo sapiens) (UniProt P35372); test: Inhibition of human Gbetagamma-dependent mu opioid receptor-mediated PLC activation expressed in CHO cells assessed as reduction of DAMGO-mediated total inositol phosphate production at 10 uM after 30 mins by scintillation counting analysis in presence of [3H]inositol; assay type: functional, cell-based
Sequence of Mu-type opioid receptor (Homo sapiens) (P35372 whole entry): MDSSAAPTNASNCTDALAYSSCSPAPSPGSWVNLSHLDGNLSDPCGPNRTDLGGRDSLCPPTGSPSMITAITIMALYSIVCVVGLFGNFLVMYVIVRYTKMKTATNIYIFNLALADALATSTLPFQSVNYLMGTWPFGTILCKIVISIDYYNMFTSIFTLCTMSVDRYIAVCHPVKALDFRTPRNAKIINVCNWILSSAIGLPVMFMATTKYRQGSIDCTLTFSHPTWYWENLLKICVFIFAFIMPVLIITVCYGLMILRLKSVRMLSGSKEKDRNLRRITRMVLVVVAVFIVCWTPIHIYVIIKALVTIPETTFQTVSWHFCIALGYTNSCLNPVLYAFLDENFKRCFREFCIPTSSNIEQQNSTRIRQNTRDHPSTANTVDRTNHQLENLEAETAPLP

[16] = molecular target: Mu-type opioid receptor (Homo sapiens) (UniProt P35372); test: Inhibition of human Gbetagamma-dependent mu opioid receptor-mediated PLC activation expressed in CHO cells assessed as reduction of morphine-mediated total inositol phosphate production at 10 uM after 30 mins by scintillation counting analysis in presence of [3H]inositol; assay type: functional, cell-based
CHO = test: Inhibition of human Gbetagamma-dependent kappa opioid receptor-mediated PLC activation expressed in CHO cells assessed as reduction of U50,488-mediated total inositol phosphate production at 10 uM after 30 mins by scintillation counting analysis in presence of [3H]inositol; assay type: cell-based

COc1cc2c(c(OC)c1OC)-c1ccc(O)c(=O)cc1C(N)CC2 (centres undefined)
inhibition [1]: inactive
inhibition (HL-60 [2]): Active
inhibition [3]: inactive
Activity (HL-60 [4]): inactive

O=C1c2ccccc2C(=O)c2c(Nc3cc4c5c(ccc6c7ccc8c9c(cc(Nc%10cccc%11c%10C(=O)c%10ccccc%10C%11=O)c(c3c56)c97)-c3ccccc3C8=O)C(=O)c3ccccc3-4)cccc21
IC50 [5]: Not Active

Ic1ccc2c(c1)N(c1ccccc1)c1cc(Nc3ccc4nc5ccc(I)cc5[n+](-c5ccccc5)c4c3)ccc1N2
IC50 [5]: Not Active
IC50 [6]: Not Active

O=C(O)C1CCCCC1c1c2ccc(=O)cc-2oc2cc(O)ccc12 (centres undefined)
inhibition (Mus musculus [7]): inactive
inhibition (Mus musculus [8]): inactive
inhibition (HL-60 [9]): inactive
inhibition (HL-60 [10]): inactive

O=C(O)C1CC23C(Cl)C(Cl)C(Cl)C(Cl)C2(CC1c1c2ccc(=O)c(O)c-2oc2c(O)c(O)ccc12)C3(Cl)Cl (centres undefined)
inhibition (HL-60 [11]): Active
inhibition (HL-60 [12]): Active
Activity (HL-60 [4]): inactive

Cc1c2ccc(=O)cc-2oc2cc(O)ccc12
inhibition [13]: inactive
inhibition [14]: inactive

COC(=O)/C=C/C(=O)N[C@@H]1CC[C@@]2(O)[C@H]3Cc4ccc(O)c5c4[C@@]2(CCN3CC2CC2)[C@H]1O5
inhibition [15]: Active
inhibition [16]: Active

Oc1ccc2c3c1O[C@H]1c4[nH]c5c(c4C[C@@]4(O)[C@@H](C2)N(CC2CC2)CC[C@]314)C[C@@]1(O)[C@H]2Cc3ccc(O)c4c3[C@@]1(CCN2CC1CC1)[C@H]5O4
inhibition (CHO): inactive

From ChEMBL document CHEMBL3727357, “Compositions and methods for inhibiting g protein signaling” (2010)
